Assay [1] has as its target T1, hSOS1 and hKRASG12C (Homo sapiens, UniProt Q07889).
T1 sequence (Q07889 564-1049): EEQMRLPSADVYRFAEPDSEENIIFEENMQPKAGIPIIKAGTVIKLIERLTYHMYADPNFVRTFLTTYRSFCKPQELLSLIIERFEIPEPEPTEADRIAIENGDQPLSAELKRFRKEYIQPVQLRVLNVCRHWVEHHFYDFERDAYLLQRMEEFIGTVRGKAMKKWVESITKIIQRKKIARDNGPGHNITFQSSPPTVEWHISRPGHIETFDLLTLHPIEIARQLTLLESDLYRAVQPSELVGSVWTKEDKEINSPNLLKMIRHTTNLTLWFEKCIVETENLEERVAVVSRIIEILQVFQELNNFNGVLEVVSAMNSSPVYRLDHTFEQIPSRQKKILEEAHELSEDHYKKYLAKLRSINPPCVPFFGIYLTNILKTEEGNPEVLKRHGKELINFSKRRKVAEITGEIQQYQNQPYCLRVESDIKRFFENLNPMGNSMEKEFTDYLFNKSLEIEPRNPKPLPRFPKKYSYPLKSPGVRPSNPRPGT
Briefly: biochemical.
Method: Interaction assay was conducted to evaluate the ability of the compounds to disrupt the protein-protein interactions between hSOS1 and hKRASG12C. Inhibitory effect of compounds on GST-hSOS1, 564-1049aa expressed and purified in-house and HIS-hKRASG12C (R06-32DH, SignalChem) interaction was assessed using HTRF detection technology in biochemical assay. Compounds were pre-incubated with 10-50 nM working solution of hSOS1 per well of a 384 well plate (Perkin Elmer, Cat #6007290) for 10 min at 20° C. in the assay buffer containing 5 mM HEPES, pH 7.4, 150 mM NaCl, 10 mM EDTA, 1 mM DTT, 0.05% BSA fraction V and 0.0025% Igepal. Reaction was initiated by adding 100-300 nM working solution of hKRASG12C in assay buffer. Total assay volume was 15 μL. Reaction was continued for 30-60 min at 20° C. Then detection solution containing MAb Anti-GST-d2 (#61GSTDLA, Cisbio BioAssays) and MAb Anti-HIS-Tb (#61HISTLA, Cisbio BioAssays), all prepared in HTRF detection buffer (#61DB10RDF, Cisbio BioAssays) was added and further incubated for 30-60 min at 20° C. HTRF signal was recorded in PHERAStar microplate reader. Ratio of signal obtained at 665 nm and 620 nm was used to compute the percent inhibition of compound utilizing the following formula:
Positive control=hSOS1+hKRASG12C+MAb Anti-GST-d2+Mab Anti-HIS-Tb Negative control=hKRASG12C+MAb Anti-GST-d2+MAb Anti-HIS-Tb

For assay [2], the system named is pERK in DLD1 cells. Briefly: ERK phosphorylation assay after EGF stimulation. It is filed as cell-based. Conditions: Homo sapiens, DLD-1, compound 2 h, 200 ng/ml hEGF 5 minutes, alphascreen pERK, read-out: ERK phosphorylation inhibition IC50. The essentials:
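DLD1 cells pretreated 2 h with compound, then stimulated 5 minutes with 200 ng/ml hEGF. Lysates assayed for ERK1/2 p-T202/Y204 by AlphaScreen SureFire, read after 2 h at 25-28° C.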

Assay [3] addresses T2, hSOS1 mediated nucleotide exchange on hKRASG12C (Homo sapiens, UniProt Q07889).
T2 sequence (Q07889 564-1049): T1 sequence (Q07889 564-1049)
Briefly: biochemical.
Method: Example-127: Guanine Nucleotide Exchange Assay (GNEA)
GNEA assay was conducted to evaluate the effects of compounds on the nucleotide exchange on hKRASG12C mediated by hSOS1. Inhibitory effect of compounds on HIS-hSOS1, 564-1049aa mediated GTP loading onto GST-hKRASG12C, 1-169aa both expressed and purified in-house was assessed using HTRF detection technology in biochemical assay. Compounds were pre-incubated with hSOS1 working solution containing 10-50 nM hSOS1 and 200 nM EDA-GTP-DY-647P1 (Custom manufactured, Jena Biosciences) per well of a 384 well plate (Perkin Elmer, Cat #6007290) for 10 min at 20° C. in the assay buffer containing 10 mM HEPES, pH 7.4, 150 mM NaCl, 5 mM MgCl2, 1 mM DTT, 0.05% BSA fraction V and 0.0025% Igepal. Reaction was initiated by adding working solution of hKRASG12C containing 25-125 nM hKRASG12C and MAb Anti-GST-Tb (#61GSTTLA, Cisbio BioAssays) in assay buffer. Total assay volume was 15 μL. Reaction was continued for 30-60 min at 20° C. HTRF signal was recorded in PHERAStar microplate reader. Ratio of signal obtained at 665 nm and 620 nm was used to compute the percent inhibition of compound as follows.
Where, Positive control=hSOS1+EDA-GTP-DY-647P1+hKRASG12C+MAb Anti-GST-Tb Negative control=EDA-GTP-DY-647P1+hKRASG12C+MAb Anti-GST-Tb

Results on 20 compounds are retold here after US12435066B2, “Substituted tricyclic compounds” (LUPIN LIMITED, priority 2019, dated 2025).

pIC50: −log10 of the molar value.

A word on the pIC50: it is the negative decadic logarithm of the IC50, by convention in mol/L. With `COCC1CN(c2cc3c(N[C@H](C)c4cc(N)cc(C(F)(F)F)c4)nc(C)nc3c3c2CCC3)C1` [Compound 26, (R)—N-(1-(3-amino-5-(trifluoromethyl)phenyl)ethyl)-6-(3-(methoxymethyl)azetidin-1-yl)-2-methyl-8,9-dihydro-7H-cyclopenta[h]quinazolin-4-amine], the pIC50 in assay [1] was 8.00 to 9.00; in assay [2] it was 6.70 to 9.00; in assay [3], 7.15 to 7.51.
The corresponding values for `Cc1nc(N[C@H](C)c2cc(N)cc(C(F)(F)F)c2)c2cc(N3CC4(COC4)C3)c3c(c2n1)CC(C)(C)O3` [Compound 114, (R)—N-(1-(3-amino-5-(trifluoromethyl)phenyl)ethyl)-2,8,8-trimethyl-6-(2-oxa-6-azaspiro[3.3]heptan-6-yl)-8,9-dihydrofuro[2,3-h]quinazolin-4-amine] are 8.00 to 9.00, 6.70 to 9.00 and 7.15 to 7.51.
On the same counts, the results for `Cc1nc(N[C@H](C)c2cccc(C(F)(F)C(C)(C)O)c2F)c2cc(N3CCOCC3)c3c(c2n1)CCC3` [Compound 59, (R)-1,1-difluoro-1-(2-fluoro-3-(1-((2-methyl-6-morpholino-8,9-dihydro-7H-cyclopenta[h]quinazolin-4-yl)amino)ethyl)phenyl)-2-methylpropan-2-ol] are 8.00 to 9.00, 6.70 to 9.00 and 7.52 to 9.00.
For `COCC1(O)CCN(c2cc3c(N[C@H](C)c4cccc(C(F)(F)[C@@H](C)O)c4F)nc(C)nc3c3c2CCC3)CC1` (single isomer, unassigned) [Compound 72b], the pIC50 in assay [1] is 8.00 to 9.00; in assay [2] it was 6.70 to 9.00; in assay [3] it was 7.52 to 9.00.
The corresponding values for `Cc1nc(N[C@H](C)c2cccc(C(F)(F)C(C)(C)O)c2F)c2cc(N3CCC(C)(CO)CC3)c3c(c2n1)CCC3` [Compound 60, (R)-1,1-difluoro-1-(2-fluoro-3-(1-((6-(4-(hydroxymethyl)-4-methylpiperidin-1-yl)-2-methyl-8,9-dihydro-7H-cyclopenta[h]quinazolin-4-yl)amino)ethyl)phenyl)-2-methylpropan-2-ol] are 8.00 to 9.00, 6.70 to 9.00 and 7.52 to 9.00.
On the same counts, the results for `COc1cc2c(N[C@H](C)c3cccc(C(F)(F)CO)c3F)nc(C)nc2c2c1N(C)CCO2` [Compound 121, (R)-2,2-difluoro-2-(2-fluoro-3-(1-((6-methoxy-2,7-dimethyl-8,9-dihydro-7H-[1,4]oxazino[3,2-h]quinazolin-4-yl)amino)ethyl)phenyl)ethan-1-ol] are 8.00 to 9.00, 6.70 to 9.00 and 7.52 to 9.00.
On the same counts, the results for `Cc1nc(N[C@H](C)c2cc(N)cc(C(F)(F)F)c2)c2cc(N3CC4(CC(O)C4)C3)c3c(c2n1)CCC3` [Compound 52, (R)-2-(4-((1-(3-amino-5-(trifluoromethyl)phenyl)ethyl)amino)-2-methyl-8,9-dihydro-7H-cyclopenta[h]quinazolin-6-yl)-2-azaspiro[3.3]heptan-6-ol] are 8.00 to 9.00, 6.70 to 9.00 and 7.52 to 9.00.
As to `COCC1(O)CCN(c2cc3c(N[C@H](C)c4cccc(C(F)(F)CO)c4F)nc(C)nc3c3c2CCC3)CC1` [Compound 68, (R)-1-(4-((1-(3-(1,1-difluoro-2-hydroxyethyl)-2-fluorophenyl)ethyl)amino)-2-methyl-8,9-dihydro-7H-cyclopenta[h]quinazolin-6-yl)-4-(methoxymethyl)piperidin-4-ol], the pIC50 in assay [1] was 8.00 to 9.00; in assay [2] it was 6.70 to 9.00; in assay [3] it was 7.52 to 9.00.
The corresponding values for `Cc1nc(N[C@H](C)c2cccc(C(F)(F)[C@@H](C)O)c2F)c2cc(N3CC4(COC4)C3)c3c(c2n1)CCC3` (single isomer, unassigned) [Compound 73b] are 8.00 to 9.00, 6.70 to 9.00 and 7.52 to 9.00.
On the same counts, the results for `Cc1nc(N[C@H](C)c2cc(N)cc(C(F)(F)F)c2)c2cc(N3CCC(O)(CO)CC3)c3c(c2n1)CCC3` [Compound 84, (R)-1-(4-((1-(3-amino-5-(trifluoromethyl)phenyl)ethyl)amino)-2-methyl-8,9-dihydro-7H-cyclopenta[h]quinazolin-6-yl)-4-(hydroxymethyl)piperidin-4-ol] are 8.00 to 9.00, 6.70 to 9.00 and 7.52 to 9.00.
Consider `Cc1nc(N[C@H](C)c2cc(N)cc(C(F)(F)F)c2)c2cc(N3CCC(O)CC3)c3c(c2n1)CCC3` [Compound 48, (R)-1-(4-((1-(3-amino-5-(trifluoromethyl)phenyl)ethyl)amino)-2-methyl-8,9-dihydro-7H-cyclopenta[h]quinazolin-6-yl)piperidin-4-ol], for which the negative-log IC50 (pIC50) in assay [1] was 8.00 to 9.00; in assay [2] it was 6.70 to 9.00; in assay [3] it was 7.52 to 9.00.
The corresponding values for `Cc1nc(N[C@H](C)c2cc(N)cc(C(F)(F)F)c2)c2cc(N3CCOCC3)c3c(c2n1)CC(C)O3` (mixture of isomers) [Compound 117a, (R/S)—N—((R)-1-(3-amino-5-(trifluoromethyl)phenyl)ethyl)-2,8-dimethyl-6-morpholino-8,9-dihydrofuro[2,3-h]quinazolin-4-amine] are 8.00 to 9.00, 6.70 to 9.00 and 7.15 to 7.51.
The corresponding values for `COCC1(O)CCN(c2cc3c(N[C@H](C)c4cc(N)cc(C(F)(F)F)c4)nc(C)nc3c3c2CCC3)CC1` [Compound 47, (R)-1-(4-((1-(3-amino-5-(trifluoromethyl)phenyl)ethyl)amino)-2-methyl-8,9-dihydro-7H-cyclopenta[h]quinazolin-6-yl)-4-(methoxymethyl)piperidin-4-ol] are 8.00 to 9.00, 6.70 to 9.00 and 7.52 to 9.00.
As to `Cc1nc(NC(C)c2cc(N)cc(C(F)F)c2)c2cc(N3CC4(COC4)C3)c3c(c2n1)CCC3` (racemic) [Compound 78, (R/S)—N-(1-(3-amino-5-(difluoromethyl)phenyl)ethyl)-2-methyl-6-(2-oxa-6-azaspiro[3.3]heptan-6-yl)-8,9-dihydro-7H-cyclopenta[h]quinazolin-4-amine], the pIC50 in assay [1] was 8.00 to 9.00; in assay [2] it was 6.70 to 9.00; in assay [3] it was 7.52 to 9.00.
The corresponding values for `Cc1nc(N[C@H](C)c2cc(N)cc(C(F)(F)F)c2)c2cc(N3CCOCC3=O)c3c(c2n1)CCC3` [Compound 83, (R)-4-(4-((1-(3-amino-5-(trifluoromethyl)phenyl)ethyl)amino)-2-methyl-8,9-dihydro-7H-cyclopenta[h]quinazolin-6-yl)morpholin-3-one] are 7.70 to 7.96, 6.70 to 9.00 and 6.89 to 7.15.
Regarding `Cc1nc(N[C@H](C)c2cccc(C(F)(F)[C@@](C)(O)CO)c2F)c2cc(N3CCOCC3)c3c(c2n1)CCC3` (racemic) [Compound 82b, (S/R)-3,3-difluoro-3-(2-fluoro-3-((S/R)-1-((2-methyl-6-morpholino-8,9-dihydro-7H-cyclopenta[h]quinazolin-4-yl)amino)ethyl)phenyl)-2-methylpropane-1,2-diol], the pIC50 in assay [1] was 8.00 to 9.00; in assay [2], 6.70 to 9.00; in assay [3], 7.52 to 9.00.
Take `Cc1nc(N[C@H](C)c2cccc(C(F)(F)CO)c2F)c2cc(N3CC[C@H](O)C3)c3c(c2n1)CCC3` [Compound 22, (S)-1-(4-(((R)-1-(3-(1,1-difluoro-2-hydroxyethyl)-2-fluorophenyl)ethyl)amino)-2-methyl-8,9-dihydro-7H-cyclopenta[h]quinazolin-6-yl)pyrrolidin-3-ol]: the pIC50 is 8.00 to 9.00 in assay [1], 6.70 to 9.00 in assay [2] and 7.52 to 9.00 in assay [3].
As for `Cc1nc(N[C@H](C)c2cc(N)cc(C(F)(F)F)c2)c2cc(N3CCC(C(C)(C)O)CC3)c3c(c2n1)CCC3` [Compound 51, (R)-2-(1-(4-((1-(3-amino-5-(trifluoromethyl)phenyl)ethyl)amino)-2-methyl-8,9-dihydro-7H-cyclopenta[h]quinazolin-6-yl)piperidin-4-yl)propan-2-ol], the pIC50 in assay [1] was 8.00 to 9.00; in assay [2] it was 6.70 to 9.00; in assay [3], 7.52 to 9.00.
On the same counts, the results for `COCC(F)(F)c1cccc([C@@H](C)Nc2nc(C)nc3c4c(c(N5CC6(COC6)C5)cc23)CCC4)c1F` [Compound 24, (R)—N-(1-(3-(1,1-difluoro-2-methoxyethyl)-2-fluorophenyl)ethyl)-2-methyl-6-(2-oxa-6-azaspiro[3.3]heptan-6-yl)-8,9-dihydro-7H-cyclopenta[h]quinazolin-4-amine] are 8.00 to 9.00, 6.70 to 9.00 and 7.15 to 7.51.
On the same counts, the results for `Cc1nc(N[C@H](C)c2cc(N)cc(C(F)(F)F)c2)c2cc(N3CC4(COC4)C3)c3c(c2n1)CCC3` [Compound 33, (R)—N-(1-(3-amino-5-(trifluoromethyl)phenyl)ethyl)-2-methyl-6-(2-oxa-6-azaspiro[3.3]heptan-6-yl)-8,9-dihydro-7H-cyclopenta[h]quinazolin-4-amine] are 8.00 to 9.00, 6.70 to 9.00 and 7.52 to 9.00.
